How the values were obtained:
[1] = pH cycling study: remineralization of artificial lesions (SMH, EFU); parameters: species or system Bovine; settings: five days, calcium compounds used together with 100 ppm F treatments
Procedure: A pH cycling study was performed. The study was developed to simulate the spike in acid production after three meals during the course of a day.
Bovine enamel specimens were polished and artificial lesions formed by immersion of the specimens in a lesion forming solution consisting of 0.1 M lactic acid and 0.2% Carbopol C907 which was 50% saturated with hydroxyapatite and adjusted to pH 5.0. The average specimen surface microhardness (SMH) was determined from four indentations on the surface of each specimen, using a Vickers hardness indenter at a load of 200 g for 15 seconds. […] Specimens were divided into subgroups of 18 specimens balanced by post-demineralization surface microhardness (SMH) values.
Remineralization efficacy was evaluated under two different cyclic treatment regimens. Both regimens consisted of three one-minute fluoride treatment periods (100 ppm, pH=6.5), and three one-hour acid challenges in the lesion forming solution, with calcium introduced during the acid challenges.
The difference between the two treatment regimens was the relative order of the fluoride treatments and the acid challenges. In Regimen I, shown in Table 1, the demineralization event (Demin: Lactic Acid Challenge) occurred first, followed by the remineralization event (Remin: Artificial Saliva Soak). In Regimen II, shown in Table 2, the order of events was reversed, and the remineralization event occurred first, followed by the demineralization event.
During the acid challenge periods (Demin: Lactic Acid Challenge), a 15 ml aliquot of the lesion forming solution was transferred to a treatment beaker containing six enamel specimens. Calcium compounds at equimolar calcium concentration, were introduced to the solution 20 minutes after the start of the acid challenge.
The pH cycling regimens were repeated for five consecutive days. […] As a negative control, the calcium sources, as well as the fluoride source, were replaced with water. Also, for comparison purposes, a study was performed with only the fluoride source.
After five days of treatment and pH cycling, remineralization efficacy was measured from change in surface microhardness (SMH) and enamel fluoride uptake (EFU). The surface microhardness was measured as described above, where the indentations were measured next to the baseline indentations. The fluoride content was determined by micro-drilling to a depth of 100 micron into each tooth. The enamel powder from the drill hole was collected, dissolved (20 microliter of HClO4, 40 microliter Citrate/EDTA Buffer and 40 microliter deionized (DI) water) and analyzed for fluoride by comparison to a similarly prepared standard curve.

[2] = pH study: change in pH of lesion forming solution after addition of calcium compounds; assay type: physicochemical; settings: 8 mM Ca added to lesion forming solution (pH 5.0), stirred 30 minutes at 37 degrees C.

| ΔpH [2] | SMILES | EFU, comparison between treatment groups (in words) ([1]; Regimen II) | SMH, comparison between treatment groups (in words) ([1]; Regimen II) | EFU, comparison between treatment groups (in words) ([1]; Regimen I) | SMH, comparison between treatment groups (in words) ([1]; Regimen I) |
| --- | --- | --- | --- | --- | --- |
| – | O.O.[Ca+2].[Cl-].[Cl-] [Calcium Chloride Dihydrate, reference compound] | highest values of EFU | highest values of SMH | – | – |
| +0.33 | O=P([O-])([O-])[O-].O=P([O-])([O-])[O-].[Ca+2].[Ca+2].[Ca+2] [Alpha-Tricalcium Phosphate] | equivalent to the EFU of the specimens only treated with 100 ppm F | comparable to the SMH of the specimens only treated with 100 ppm F | comparable to the EFU of the highly soluble calcium compound (Calcium Chloride Dihydrate) treated specimens | comparable to the SMH of the highly soluble calcium compound (Calcium Chloride Dihydrate) treated specimens |

Source: patent US11857653B2
